Measurements from PubChem BioAssay (NCI).
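Each compound was tested at five concentrations against cells in 96-well plates for 48 hours. TGI: total growth inhibition.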

Tests used:
Assay in all cases: NCI-60 cell line screen, 48 h
HCC-2998 colon = system: HCC-2998 colon
HCT-15 colon = system: HCT-15 colon
HL-60(TB) leukemia = system: HL-60(TB) leukemia
HOP-62 NSCLC = system: HOP-62 NSCLC
K-562 leukemia = system: K-562 leukemia
KM12 colon = system: KM12 colon
MOLT-4 leukemia = system: MOLT-4 leukemia
NCI-H460 lung = system: NCI-H460 lung
OVCAR-3 ovarian = system: OVCAR-3 ovarian
OVCAR-4 ovarian = system: OVCAR-4 ovarian
OVCAR-5 ovarian = system: OVCAR-5 ovarian
SK-MEL-2 melanoma = system: SK-MEL-2 melanoma
SK-MEL-28 melanoma = system: SK-MEL-28 melanoma
SK-OV-3 ovarian = system: SK-OV-3 ovarian
UO-31 renal = system: UO-31 renal
OVCAR-8 ovarian = system: OVCAR-8 ovarian
SN12C renal = system: SN12C renal
NCI/ADR-RES ovarian = system: NCI/ADR-RES ovarian
BT-549 breast = system: BT-549 breast
MDA-N = system: MDA-N

Compound	TGI (HCC-2998 colon) [µM]	TGI (HCT-15 colon) [µM]	TGI (HL-60(TB) leukemia) [µM]	TGI (HOP-62 NSCLC) [µM]	TGI (K-562 leukemia) [µM]	TGI (KM12 colon) [µM]	TGI (MOLT-4 leukemia) [µM]	TGI (NCI-H460 lung) [µM]	TGI (OVCAR-3 ovarian) [µM]	TGI (OVCAR-4 ovarian) [µM]	TGI (OVCAR-5 ovarian) [µM]	TGI (SK-MEL-2 melanoma) [µM]	TGI (SK-MEL-28 melanoma) [µM]	TGI (SK-OV-3 ovarian) [µM]	TGI (UO-31 renal) [µM]	TGI (OVCAR-8 ovarian) [µM]	TGI (SN12C renal) [µM]	TGI (NCI/ADR-RES ovarian) [µM]	TGI (BT-549 breast) [µM]	TGI (MDA-N) [µM]
COc1cc2c(cc1O)[C@H](C)C(c1ccc(Cl)cc1)O2 (stereo partly drawn)	36.1	27.7	35.6	68.2	51.7	62.1	40.9	33.4	> 100	> 100	> 100	56	> 100	> 100	79.4	–	–	–	–	–
C=CCN1C(=O)CS/C1=N\NC(=O)c1c(C)nc2sccn12	> 100	> 100	> 100	> 100	> 100	> 100	> 100	> 100	> 100	–	> 100	> 100	> 100	> 100	–	> 100	> 100	–	–	–
COC(=O)/C(=C/c1ccc(OC)cc1)C(C(=O)O)=C(C)C	> 100	> 100	> 100	> 100	> 100	> 100	> 100	> 100	> 100	–	> 100	> 100	> 100	> 100	> 100	> 100	> 100	–	–	–
COc1ccc(NC(=S)NN=C(C)c2cccc(C(C)=NNC(=S)Nc3ccc(OC)cc3)n2)cc1	> 100	> 100	> 100	> 100	> 100	84.2	> 100	> 100	> 100	> 100	> 100	> 100	> 100	> 100	> 100	> 100	> 100	> 100	–	–
CN(C)[C@@H]1C(=O)C(C(N)=O)=C(O)[C@@]2(O)C(=O)C3=C(O)c4c(O)cccc4C[C@H]3C[C@@H]12	–	22	–	4.21	6.65	6.54	5.55	6.48	–	3.26	–	3.31	3.19	3.96	4.08	9.52	–	–	–	–
CC12CC3c4ccccc4CN1C3(c1ccccc1)OC2=O (stereo not drawn)	–	> 100	> 100	> 100	–	> 100	> 100	–	–	> 100	> 100	> 100	> 100	> 100	> 100	> 100	> 100	> 100	> 100	–
CC(C)(C)C1CC[C@H]2c3c([nH]c4ccc(Br)cc34)[C@H]3C(=O)N(c4ccccc4)C(=O)[C@H]3[C@H]2C1 (stereo partly drawn)	> 100	–	35.1	> 100	> 100	> 100	71.6	38.9	> 100	33.3	> 100	> 100	> 100	40.8	> 100	11.8	57.3	–	–	–
O=C(/C=C/c1ccc(OCCCCCCCCCCOc2ccc(/C=C/C(=O)c3ccc(Cl)cc3)cc2)cc1)c1ccc(Cl)cc1	> 100	> 100	> 100	> 100	> 100	> 100	> 100	> 100	> 100	–	> 100	> 100	> 100	> 100	> 100	> 100	> 100	–	–	–
Cc1ccc(-c2cc(-c3ccco3)nc(N)n2)o1	–	> 100	> 100	> 100	> 100	> 100	> 100	> 100	> 100	> 100	> 100	> 100	> 100	–	> 100	> 100	> 100	–	–	–
On1c(-c2ccccc2)c(-c2c(-c3ccccc3)n(O)c3ccccc23)c2ccccc21	–	> 100	> 100	–	> 100	> 100	> 100	49.4	> 100	> 100	–	59.2	> 100	80.6	53	> 100	> 100	–	–	–
COc1ccc(C[C@@H]2CN(C(=O)c3ccccc3)[C@H](Cc3ccc(O)cc3)CN2C(=O)c2ccccc2)cc1Br	> 100	> 100	> 100	> 100	> 100	> 100	> 100	> 100	> 100	> 100	> 100	> 100	> 100	> 100	> 100	> 100	> 100	> 100	> 100	–
Cc1cc(Br)c(N2C3=C(CC4=C2CCCC4=O)C(=O)CCC3)c(Br)c1	> 100	> 100	> 100	–	> 100	> 100	> 100	> 100	> 100	> 100	> 100	–	> 100	> 100	> 100	> 100	> 100	> 100	> 100	–
CCOC(=O)c1ccc(NC2Oc3cc4c(cc3C(c3cc(OC)c(OC)c(OC)c3)C2C)OCO4)cc1 (stereo not drawn)	6.32	> 54.6	0.564	> 71.4	–	3.69	11.5	> 100	–	> 64.7	> 100	> 63.4	> 100	> 21.1	4.65	33	> 71.5	8.27	6.76	–
N#CI1OC(=O)c2ccccc21	> 100	> 100	> 100	> 100	> 100	> 100	> 100	> 100	> 100	> 100	> 100	> 100	> 100	> 100	> 100	> 100	> 100	> 100	> 100	–
O=C(NCCNCCO)N/N=C/c1cccc([N+](=O)[O-])c1	–	> 100	> 100	> 100	> 100	> 100	> 100	> 100	> 100	> 100	> 100	> 100	> 100	> 100	> 100	> 100	> 100	–	–	–
N#Cc1[nH]c(=O)n(-c2ccc([N+](=O)[O-])cc2)c1N	> 10	> 10	> 10	> 10	> 10	–	> 10	> 10	> 10	> 10	> 10	> 10	> 10	> 10	> 10	> 10	> 10	> 10	–	> 10
CCCCOC1CC2(c3ccc(OC)cc3)C(=O)c3ccccc3N2O1 (stereo not drawn)	–	> 10	–	–	> 100	> 100	61.5	> 10	> 100	–	> 10	> 100	–	> 100	> 10	> 100	> 10	–	–	–
N=C(N)/N=C(/C=C/c1ccccc1)CC1OC(=O)c2ccccc21 (stereo not drawn)	> 100	> 100	> 100	> 100	> 100	> 100	> 100	> 100	–	> 100	–	> 100	–	–	> 100	> 100	> 100	–	–	–
Nc1c(Br)cc(-c2cc(Br)c(N)c(Br)c2)cc1Br	> 100	–	> 100	> 100	> 100	> 100	> 100	> 100	> 100	> 100	> 100	–	> 100	> 100	> 100	> 100	> 100	> 100	–	> 100
CCOn1cc(C[C@@]2(O)C(=O)OC3[C@@H](O)CO[C@@]32O)c2ccccc21 (stereo partly drawn)	–	> 100	> 100	> 100	> 100	> 100	> 100	> 100	> 100	> 100	> 100	> 100	> 100	> 100	> 100	> 100	> 100	> 100	> 100	–
COc1ccc(-n2sc3ncc(-c4ccccc4)cc3c2=O)cc1	> 100	> 100	> 100	> 100	–	> 100	–	> 100	47.2	45.7	74	> 100	> 100	> 100	49.7	> 100	80.2	> 100	> 100	–
Oc1c(Cl)c2nccnc2c2ccccc12	> 100	> 100	> 100	–	> 100	> 100	> 100	> 100	> 100	> 100	> 100	> 100	> 100	> 100	> 100	> 100	> 100	–	–	–
O=c1[nH]cnc2c1nnn2CCCn1nnc2c(=O)[nH]cnc21	> 100	> 100	> 100	> 100	> 100	> 100	> 100	> 100	> 100	> 100	> 100	> 100	> 100	> 100	> 100	> 100	> 100	–	–	–
O=C(CCN1CCCCC1CCO)Nc1ccc2c(c1)C(=O)c1ccc(NC(=O)CCN3CCCCC3CCO)cc1C2=O (stereo not drawn)	> 100	24.6	19	21.4	> 100	9.87	39.1	20.4	9.03	45.4	61.2	7.27	23.5	22.6	> 100	15.1	16	–	–	–
COC(=O)OCC1OC(N2C(=O)NC(=O)C(I)C2N=[N+]=[N-])CC1OC(=O)OC (stereo not drawn)	> 100	> 100	> 100	> 100	> 100	> 100	> 100	> 100	> 100	> 100	> 100	–	> 100	> 100	> 100	> 100	> 100	–	–	–
O=[N+]([O-])/C(C(Cl)=C(Cl)Cl)=C1\Nc2ccccc2O1	> 100	> 100	48.7	> 100	> 100	> 100	77.9	> 100	63.6	> 100	> 100	> 100	> 100	> 100	30.6	63.9	> 100	–	–	> 100
c1ccc2[nH]c(-c3nc4ccccc4o3)nc2c1	> 100	> 100	> 100	> 100	–	> 100	> 100	> 100	> 100	> 100	> 100	> 100	> 100	> 100	> 100	> 100	> 100	–	–	–
CS(=O)(=O)NNS(=O)(=O)c1ccc(Br)cc1	> 100	> 100	> 100	> 100	> 100	–	–	> 100	–	> 100	> 100	> 100	> 100	> 100	> 100	> 100	–	–	–	–
